For orientation: IC50 means the concentration that gives 50% inhibition. Lower therefore signals greater potency in that assay. As a reminder, the EC50 is the concentration giving half of the maximal effect. Low values mean a more potent agent, high ones a less potent agent.

One assay relates to NCI-H23 cells. The assay is described as follows: Proliferation and cell viability, CellTiter-Glo 2.0 (CTG) assay. To be noted: 144 hrs. The class given is cell-based. For orientation: In ATP-based viability assays light output follows the ATP content of the culture.
For another assay, the system named is NCI-H226 cells. Put plainly: Proliferation, Cell Titer One assay. To be noted: 6 days. The class given is cell-based. The procedure:
(§1) Cell proliferation of a TEAD dependent NF2-null mesothelioma cell line, NCI-H226, and a TEAD-non-dependent mesothelioma cell line, NCI-H28 was assayed using two different protocols: • a) CellTiter-Glo 2.0 (Promega #G9243). The effect of the TEAD inhibitors disclosed herein on cell proliferation was determined in TEAD1-genetically dependent cell line NCI-H226 (responder cell line) and TEAD-independent cell lines (NCI-H23, HEK293T), as non-responder, negative control. Cells were seeded in 96-well plates (Thermo Scientific #167008) in growth media (RPMI-1640, Gibco #61870-010) for NCI-H226 and NCI-H23 or DMEM (Gibco #31966-021, HEK293T) with 10% Heat Inactivated Fetal Bovine Serum (Gibco 10500-064) at 800 (NCI-H226 and HEK-293T) or 2000 (NCI-H23) cells per well at 37° C., 5% CO2, humidified incubator; 24 hours later, fresh growth media containing test compound or DMSO vehicle was added and incubated with the cells for 144 hrs. TEAD inhibitor stocks were made at a 1000× fold excess in DMSO, and a dose response test compound dose range of 10,000 to 0.1 nM was used. Each treatment was carried out in triplicate. After 144 hrs of treatment, relative cell viability numbers were determined using the CellTiter-Glo 2.0 assay following the manufacturer's instructions. Test plates and CellTiter-Glo 2.0 reagent were allowed to equilibrate to room temperature. CellTiter-Glo 2.0 reagent was added at 1:1 reagent to media ratio to the 96-well cell plates, plates were placed on a plate shaker for 2 minutes and then incubated at room temperature for a further 10 minutes to allow complete cell lysis to occur. The mix was then transferred to white, 96-well luminometer assay plates (Greiner Bio One #655075). Luminescence was quantified using a CLARIOStar Plus multi-mode plate reader (BMG Labtech) in luminescence detection mode with the recommended settings (ultra-Glo pre-set: emission 545-50 nm with autofocus and enhanced dynamic range on). Relative cell density was expressed as a function of inhibitor concentration, with respect to DMSO-only control wells. Data where plotted using GraphPad Prism and IC50 values for the biological effect were calculated using the EC50 non-linear fit function using a sigmoidal, 4-parameter logistic, least squares fit with no constraints. • b) Cell Titer One (Promega, #G3582). The effect of the TEAD inhibitors disclosed herein on cell proliferation was also determined using the Promega Substrate Cell Titer Aqueous One Solution Reagent. The TEAD inhibitors were evaluated for the effects on cell proliferation responder (H226) and non-responder negative control cancer cell lines (CAMA1, H28), as well as non-transformed normal human cells (HUVEC, NHDF). Dissociated cells were resuspend in media (depending on cell line, either in DMEM, RPMI, or EMEM all with 10% FBS, with gentamicin as an antibiotic). Cells were seeded at 100 μL/well at 750 cells per well in 96-well plates and allowed to settle and attach. After an incubation of 24 hrs (37° C., 5% CO2, humidified incubator), 100 μL of test compound-containing media was added. A dilution series of 2000× concentrated stock of test compounds was prepared in DMSO, for final concentrations from 0.1 to 10,000 nM. After addition of test compound-containing media, cells were incubated for 6 days at 37° C., 5% CO2, humidified incubators). To measure cell density, 20 μL of Promega Substrate Cell Titer 96 Aqueous One Solution Reagent (Promega, #G3582) to each well was added according to the manufacturer's instructions. Plates were incubated at 37° C. for usually 3-8 hrs, to reach in the control cells (without compound) an OD of 1.5 at 490 nm. The OD was measured using Vmax [Molecular Devices] spectrophotometer plate reader. Media only-wells were used as background controls and cell densities normalized to DMSO vehicle control. ECs were taken as the concentration achieving 50% of maximal growth inhibition.

Another assay has as its system NCI-H28 cells. Put plainly: Proliferation, Cell Titer One assay. The class given is cell-based. To be noted: 6 days. The procedure:
as §1

Assay [1] deals with TEAD/YAP promoter element in MCF7-Luc cells. Put plainly: Cell-based TEAD-promoter transcriptional activity assay (MCF-7 TEAD luciferase). The following applies: MCF-7 TEAD luciferase assay, 24 hrs. From the text:
Luciferase based TEAD-transcriptional cell-based reporter assay: To measure the effect of the TEAD inhibitors disclosed herein on TEAD transcriptional activity in cell-based systems, we employed a stable MCF7 cell line expressing luciferase under a consensus synthetic TEAD/YAP promoter element (MCF7-Luc, BPS Bioscience, Catalog #60618). This MCF7-TEAD-Luc cell line has been extensively validated with both genetic and pharmacological intervention, showing inhibition of luciferase expression and luminescence in response to ablation of the TEAD/YAP pathway. MCF7-Luc cells were plated at 10,000 cells per well in white 384-well plates and settled by a quick spin. The media was MEM (Gibco) supplemented with 10% fetal bovine serum (ExCell), selenium-transferrin-insulin mix (Gibco), 1× non-essential amino acids (Gibco) and sodium pyruvate (Gibco). Cells were allowed to attach and grow overnight (37° C., 5% CO2 in humidified incubator), and test compounds were added the next day. Compounds were dissolved at 1000× fold excess in DMSO and made into 2-fold serial dilution, and added to media at 30 μL of media per well. A DMSO-only well serves a vehicle control. The highest concentration of drug in media was 1,000 nM. Positive control compounds include K975 (pan-TEAD inhibitor) and negative control (Actinomycin). Cells were incubated for 24 hrs with test compounds and positive controls, after which time, the luminescence was measured by the One-Glo luciferase kit (Promega). 30 μL of One-Glo reagent was added to each well and shaken for 8 minutes to lyse the cells. The plates were centrifugated at 1000 RPM for 1 minute to settle all liquid in the well and eliminate bubbles. Luminescence was quantified using an ENVision plate reader (Perkin Elmer). Percent inhibition of luminescence by test compound was expressed as a function of test compound concentration, with the no-test compound DMSO only wells serving as baseline. EC50 values for each compound were calculated with a non-linear asymptotic line fit.

The mark [2] stands for this setting: Homo sapiens, NCI-H23, H23-non-responder cell line.

Regarding `O=C(NCc1ncco1)c1cnc2c(C3=CCC(C(F)(F)F)CC3)cccc2c1` (stereo not shown) [Compound 11, N-(oxazol-2-ylmethyl)-8-(4-(trifluoromethyl)cyclohex-1-en-1-yl)quinoline-3-carboxamide], the IC50 in the assay on NCI-H23 cells (setting [2]) is above 1000 nM; with NCI-H226 cells (Homo sapiens, NCI-H226, 144 h) it was below 200 nM; in the assay on NCI-H28 cells (Homo sapiens, NCI-H28, 144 h) it was above 1000 nM. This molecule gave an EC50 in assay [1] (Homo sapiens, MCF7) below 200 nM.
As to `C[C@H](NC(=O)c1cnc2c(C3=CCC(C(F)(F)F)CC3)cccc2c1)c1ccccn1` (stereo partly drawn) [Compound 2, N—((S)-1-(pyridin-2-yl)ethyl)-8-(4-(trifluoromethyl)cyclohex-1-en-1-yl)quinoline-3-carboxamide], the IC50 in the assay on NCI-H23 cells (setting [2]) was above 1000 nM; in the assay with NCI-H226 cells (Homo sapiens, NCI-H226, 144 h), below 200 nM; in the assay on NCI-H28 cells (Homo sapiens, NCI-H28, 144 h), above 1000 nM. Further, the EC50 in assay [1] (Homo sapiens, MCF7) was below 200 nM.
With `C[C@H](NC(=O)c1cnc2c(C3=CC[C@@H](C(F)(F)F)CC3)cccc2c1)c1ncco1` (single isomer, unassigned) [Compound 20, N-(1-(oxazol-2-yl)ethyl)-8-(4-(trifluoromethyl)cyclohex-1-en-1-yl)quinoline-3-carboxamide], the IC50 in the assay with NCI-H23 cells (H23-non-responder cell line) is above 1000 nM; with NCI-H226 cells it was below 200 nM; in the assay on NCI-H28 cells, above 1000 nM. Also, in assay [1], the EC50 was below 200 nM.
Regarding `C[C@H](CO)NC(=O)c1cnc2c(C3=CCC(C(F)(F)F)CC3)cccc2c1` (stereo partly drawn) [Compound 7, N—((R)-1-hydroxypropan-2-yl)-8-(4-(trifluoromethyl)cyclohex-1-en-1-yl)quinoline-3-carboxamide], the IC50 with NCI-H23 cells (setting [2]) was above 1000 nM; in the assay on NCI-H226 cells (Homo sapiens, NCI-H226, 144 h), below 200 nM; with NCI-H28 cells (Homo sapiens, NCI-H28, 144 h), above 1000 nM.
With `C[C@H](NC(=O)c1cnc2c(C3=CC[C@@H](C(F)(F)F)CC3)cccc2c1)c1ncco1` (single isomer, unassigned) [Compound 19, N-(1-(oxazol-2-yl)ethyl)-8-(4-(trifluoromethyl)cyclohex-1-en-1-yl)quinoline-3-carboxamide], the IC50 was above 1000 nM with NCI-H23 cells (setting [2]); below 200 nM in the assay on NCI-H226 cells (Homo sapiens, NCI-H226, 144 h); above 1000 nM with NCI-H28 cells (Homo sapiens, NCI-H28, 144 h). For the same molecule, the EC50 in assay [1] (Homo sapiens, MCF7) is below 200 nM.

For the origin of these results see patent publication US20250223306A1, “TEAD INHIBITORS AND METHODS OF USE” (Sporos BioDiscovery, Inc., priority 2022, published 2025).
